Our source for the IC50 and inhibition values is patent publication US9238643B2, “Amide compounds” (Guangzhou Institutes of Biomedicine and Health, Chinese …, priority 2010, dated 2016).

One may read the IC50 as the concentration that gives 50% inhibition. One may read the inhibition as the share of the control response that was lost under treatment.

This experiment deals with IL-1β secretion of BV2. The experiment is described as follows: Inhibition of LPS-induced IL-1β secretion of BV2 microglial cells (ELISA). The class given is cell-based. The note with it: BV-2, 24 hours; for IC50: BV2 cells, 300 ng/ml LPS induction, IL-1β by ELISA, read-out: IC50 of inhibition of the compounds of the present application to IL-1β secretion of BV2; for inhibition at 0.02 µM: Mus musculus, IL-1β secretion of BV2, compound concentration 20 nM, LPS induction, read-out: Inhibition rate (%) at 20 nM. As to the method: 1. […] microglial cell BV2 and Glioma cell line C6 are incubated in DMEM culture medium with 10% FBS, and the 6th to 15th generation culture cells are applicable for compound activity selection. Culture cells are innoculated on the 24-well cell culturing plate with 50,000 cells/well, after one day culturing, switch to low serum medium (with 2% FBS) for another 16 hours culturing. Add 300 ng/ml (for induction of BV2 cells) or 1 mg/mL (for induction of C6 cells) LPS (Salmonella typhimutium) to the culture medium to induce the IL-1β secretion of culture cells. At the same time, add sample to be determined (with DMSO≦0.1%) at concentrations of 200 pM, 20 nM, 2 μM and 200 μM; add 0.1% DMSO to blank as solvent control.
2. 24 hours after LPS induction/drug treatment, collect the culture solution and quantitatively measure the level of IL-1β. Centrifuge the culture solution at 8,000 g for 10 min at 4° C., and remove the floating particle impurities. Dilute the supernant one time, and take 150 μL sample for ELISA (Biosource) measurement.
3. Treatment of culture cells and ELISA measurement are conducted with double blind method.
4 Inhibition efficiency of candidate compound is calculated according to formula, and IC50 of every kind of candidate compound is calculated. Inhibition efficiency(%)=([IL-1β]LPS induction−[IL-1β]medical treatment)/[IL-1β]LPS induction×100%. Formula
5. Efficiency evaluation of candidate compound: positive inhibition rate of compound to IL-1β secretion of BV2 is the standard judgment of compounds efficiency; negative inhibition rate of compound to IL-1β secretion of C6 is the standard judgment of compounds safety.
Background: ELISA stands for enzyme-linked immunosorbent assay.

Each structure is given as a SMILES string.

In the case of `Cc1cc(-c2ccccc2)nnc1C(=O)N1CCN(c2ccc(F)cc2)CC1` [Compound 4, (4-(4-fluorophenyl)piperazinyl) (4-methyl-6-phenylpyridazinyl) ketone], the IC50 was 0.56 nM and the inhibition at 0.02 µM came to 54.6%. Taken in the same sequence, the figures for `Cc1cc(-c2ccccc2)nnc1C(=O)N1CCN(c2ncccn2)CC1` [Compound 5, (2-pyrimidylpiperazinyl)(4-methyl-6-phenylpyridazinyl)ketone] were 0.6 nM and 54.5%.

Regarding `O=C(c1nc(-c2ccccc2)nc2ccccc12)N1CCN(c2ccc(F)cc2)CC1` [Compound 11, (4-(4-fluorophenyl)piperazinyl) (2-phenylquinazolinyl) ketone], the 50% inhibitory concentration (IC50) amounted to 3.38 nM. Still for that read-out and setting: as for `O=C(c1nc(-c2ccccc2)nc2ccccc12)N1CCN(c2ncc(F)cn2)CC1` [Compound 12, (4-(5-fluoropyrimid-2-yl)piperazinyl)(2-phenylquinazolinyl) ketone], the figure is 1.42 nM. For `O=C(c1nc(-c2ccccc2)nc2ccccc12)N1CCN(c2ncccn2)CC1` [Compound 12a, (4-(pyrimid-2-yl)piperazinyl) (2-phenylquinazolinyl) ketone], the IC50 came out at 0.16 nM and the inhibition at 0.02 µM amounted to 46.1%.

With `O=C(c1nc(-c2ccccc2)nc2ccccc12)N1CCN(c2ccccn2)CC1` [Compound 13, (4-(2-pyridinyl)piperazinyl)(2-phenylquinazolinyl)ketone], the IC50 came out at 24.3 nM. Take `O=C(c1n[nH]c2c(F)ccc(F)c12)N1CCN(c2ccc(F)cc2)CC1` [Compound 20, (4-(4-fluorophenyl)piperazinyl) (4,7-difluoroindazol-3-yl) ketone]: the half-maximal inhibitory concentration (IC50) was 42.5 nM and the inhibition at 0.02 µM was determined as 48.06 ± 0.0618%.

As for `Cc1cc(-c2ccccc2)nnc1C(=O)N1CCN(c2ncc(F)cn2)CC1` [Compound 24], the IC50 is 5.49 nM. Same read-out and setting: as for `Cc1cc(-c2ccccc2)nnc1C(=O)N1CCN(C)CC1` [Compound 26, (N-methylpiperazinyl) (4-methyl-6-phenylpyridazinyl) ketone], the figure is 0.11 nM.
